Measured values taken from patent publication EP4737449A1 (Changchun Genescience Pharmaceutical Co., Ltd., priority 2023, dated 2025).
Where two headings read alike, the source gives them in different places.

Legend:
NUGC-3 cells = assay: NUGC-3 cell proliferation assay (CTG, 7 days); type: cell-based, human; conditions: Homo sapiens, NUGC-3, 168 h
In short: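 Cells (200/well) in 1640 medium with 10% serum exposed to 10-point, 3-fold DMSO dilutions (duplicates) for 7 days at 37°C. Viability read by CellTiter-Glo luminescence; % inhibition normalized to DMSO and blank, IC50 from variable-slope nonlinear fit.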

[1] = biological target: CYP 3A4 enzyme in human liver microsomes (Homo sapiens, UniProt P08684); assay: CYP3A4 inhibition experiment in human liver microsomes
Experimental: The inhibitory effects of the test compounds on CYP 3A4T (with testosterone as substrate) and 3A4M (with midazolam as substrate) in human liver microsomes were evaluated in vitro to assess the medication safety of the compounds.
This study used the human liver microsome system and the cytochrome P450 enzyme probe substrate recommended by FDA guidelines for in vitro drug interaction studies to investigate the inhibition of the CYP 3A4 enzyme in human liver microsomes by the test compounds.
Test group (TG): Human liver microsomes were incubated with different concentrations of test compounds, NADPH (final concentration 2.00 mM) and probe substrates of different sub-enzymes (Table 4) for 5 min.
Positive control group (PC): Human liver microsomes were incubated with inhibitors (Table 4), NADPH (final concentration 2.00 mM) and probe substrates of different sub-enzymes (Table 4) for 5 min. Table 4 Probe substrates of sub-enzymes, inhibitors and incubation systems
The system was pre-incubated at 37°C for 5 min, and then 15 µL of 8 mM NADPH solution preheated at 37°C for 5-10 min to start the reaction. After incubation of the 96-well plate at 37°C for 5 min, 180 µL of acetonitrile:methanol (ACN:MeOH=1:1) solution containing internal standard (IS) was added to terminate the reaction. […] 80 µL of the supernatant was taken, added to 120 µL of ultrapure water, shaken evenly, and then detected by LC-MS/MS.
199 µL of 0.2 mg/mL HLM and 1 µL of 1 mM positive control inhibitor (ketoconazole) working solutions were taken and mixed evenly. 30 µL of the drug-containing liver microsome solution was taken and added to a 96-well plate, then 10 µL of substrate working solution (20 µM midazolam) was added, in duplicate. The system was pre-incubated at 37°C for 5 min, and then 15 µL of 8 mM NADPH solution preheated at 37°C for 5-10 min to start the reaction. After incubation of the 96-well plate at 37°C for 5 min, 180 µL of ACN:MeOH(1:1) solution containing IS was added to terminate the reaction. […] 80 µL of the supernatant was taken, added to 120 µL of ultrapure water, shaken evenly, and then detected by LC-MS/MS.
4.2.5.1 The relative activity of CYP450 sub-enzymes at different concentrations was calculated by dividing the peak area ratio (analyte peak area/internal standard peak area) of metabolites in the presence of the test sample or positive control by the peak area ratio of metabolites in the solvent control sample in the absence of the test article or positive control, according to the following formula: [formula] [formula]
4.2.5.2 Half maximal inhibitory concentration (IC50) was obtained by fitting according to the following model formula using Prism software: Y = Bottom + (Top−Bottom)/(1+10^(∧)((LogIC50−X)×HillSlope)) [formula]
X is the test sample concentration converted to logarithm (Log µM), Y is the relative activity (% of NC), Bottom and Top represent the percentage of enzyme activity at the bottom platform and top platform of the curve, respectively, and HillSlope represents the slope; to optimize the fitting effect, the use of other (nonlinear) dose-response models for fitting is not considered as a deviation from the protocol.

[2] = NUGC-3 cell proliferation, 7 days, CTG, read-out: IC50
[3] = CYP 3A4M IC50, human liver microsomes, midazolam as substrate
[4] = CYP 3A4T IC50, human liver microsomes, testosterone as substrate

CYP 3A4 enzyme in human liver microsomes, sequence (P08684 whole entry): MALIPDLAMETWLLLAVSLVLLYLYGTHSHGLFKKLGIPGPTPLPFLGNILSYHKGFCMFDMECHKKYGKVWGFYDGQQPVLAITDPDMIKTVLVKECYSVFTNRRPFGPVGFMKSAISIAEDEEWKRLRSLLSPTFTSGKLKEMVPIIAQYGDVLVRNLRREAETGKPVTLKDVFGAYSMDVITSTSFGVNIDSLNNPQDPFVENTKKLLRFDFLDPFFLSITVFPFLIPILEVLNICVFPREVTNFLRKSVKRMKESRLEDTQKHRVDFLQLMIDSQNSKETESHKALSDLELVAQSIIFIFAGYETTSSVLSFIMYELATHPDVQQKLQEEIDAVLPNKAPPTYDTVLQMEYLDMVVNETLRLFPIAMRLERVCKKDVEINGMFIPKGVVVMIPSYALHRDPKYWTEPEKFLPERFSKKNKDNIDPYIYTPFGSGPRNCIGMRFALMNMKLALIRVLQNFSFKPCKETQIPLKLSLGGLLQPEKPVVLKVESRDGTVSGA

Compound	IC50 (NUGC-3 cells; [2]) [µM]	IC50 [1, 3] [µM]	IC50 [1, 4] [µM]	IC50 (NUGC-3 cells) [µM]
CN1CC[C@@H](Nc2cccc3c(CC(F)(F)F)c(C#CCNC(=O)c4cnn(C(C)(C)C)c4)nn23)[C@@H](F)C1 [Compound 001, 1-tert-butyl-N-[3-(7-{[(3S,4R)-3-fluoro-1-methylpiperidin-4-yl]amino}-3-(2,2,2-trifluoroethyl)pyrazolo[1,5-a]pyridin-2-yl)prop-2-yn-1-yl]-1H-pyrazole-4-carboxamide]	0.387	26.3	27.2	
CN1CC[C@@H](Nc2cccc3c(CC(F)(F)F)c(C#CCNC(=O)c4cnn(C(C)(C)C)c4N)nn23)[C@@H](F)C1 [Compound 047]		20.7	17.3	0.129
CCn1ncc(C(=O)NCC#Cc2nn3c(N[C@@H]4CCN(C)C[C@@H]4F)cccc3c2CC(F)(F)F)c1N [Compound 261, 5-amino-1-ethyl-N-[3-(7-{[(3S,4R)-3-fluoro-1-methylpiperidin-4-yl]amino}-3-(2,2,2-trifluoroethyl)pyrazolo[1,5-a]pyridin-2-yl)prop-2-yn-1-yl]-1H-pyrazole-4-carboxamide]		15.6	7.4	0.172
CNC(=O)c1ccc(NCC#Cc2cc3c(N[C@@H]4CCN(C)C[C@@H]4F)cccc3n2CC(F)(F)F)c(OC)c1 [Control compound, reference compound]	0.384	9.4	4.3	
